Reference: US20080293699A1, “Inhibitors of thapsigargin-induced cell death” (priority 2007, published 2008)
Entries after “also recorded” stand apart in the source; their conditions may differ.

Key:
phospho-c-Jun = assay: Immunoblotting of thapsigargin-induced c-Jun phosphorylation in CSM14.1 cells; format: cell-based, rat; conditions: immunoblotting with phospho-specific antibody, 10 μM, 25 μM hits
Description: After confirming the pathway selectivity of compounds, additional downstream assays can be performed to map the specific signal transduction pathway inhibited by the compounds. In this regard, various antibody reagents are commercially available for assessing the status of the three major pathways known to be activated by ER stress: (1) PERK, (2) Ire1, and (3) ATF6 (Xu et al., J. Clinical Invest., 115:2656-2664, 2005). Immunoblotting experiments can be performed to assess the expression or phosphorylation (using phospho-specific antibodies) of marker proteins in these pathways. […] CSM 14.1 cells were cultured with DMSO or with 25 μM of hit compounds for two hours, followed by treatment of thapsigargin (15 μM). Cell lysates were prepared and analyzed by SDS-PAGE/immunoblotting using antibodies specific for phospho-c-Jun, phospho-eIF2α, phospho-p38 MAPK, and tubulin (a loading control). CSM14.1 cells were cultured with either DMSO or one of the active compounds at 1, 5, and 10 μM, followed two hours later by 15 μM TG. After two hrs, cell lysates were prepared, normalized for protein content, and either analyzed by SDS-PAGE/immunoblotting using anti-p38-MAPK pan-reactive antibody or phospho-specific antibody with ECL-based detection, followed by densitometry analysis of x-ray films, normalizing phosphor-p38 MAPK relative to total p38 MAPK, or analyzed using a meso-scale instrument from MSD and a procedure in which total p38 MAPK is captured on plates, and the relative amounts of phosphorylated protein were determined using phospho-specific antibody (MSD catalog #K15112D1). […] Suppression of p38 MAPK and c-Jun phosphorylation was dose-dependent, and could not be explained by a decline in total levels of these proteins. […] Proteolytic processing of ATF6 was also not inhibited by our hit compounds. […] Screens of other libraries (such as the NIH compound collection) may yield cytoprotective compounds with different mechanisms.
1) CSM14.1 cells were plated at a density of 2×10^5 cells/well at 6 well dish (Greiner Bio one) in DMEM containing 2% FBS and antibiotics.
2) After overnight incubation, cells were treated by DMSO (0.5%) or compounds (25 μM) for two hours, followed by TG (15 uM) treatment.
3) After two hours, cells were lyzed in 250 uL of lysis buffer and subjected to protein concentration decision, and to SDS PAGE/Western blotting using antibodies specific for phospho p38 MAPK (Cell signaling 9211), p38 MAPK (Santa Cruz-C20), phospho c-Jun (Cell signaling 9164), c-Jun (Santa Cruz-SC 1694), phospho eIF2α (Cell signaling 3597) and α-tubulin.
CSM 14.1 cells were cultured with DMSO or with 25 μM of hit compounds for two hours followed by treatment with thapsigargin (15 μM). Cell lysates were prepared and analyzed by SDS-PAGE/immunoblotting using antibodies specific for: c-Jun, phosphor-c-Jun (ser 73), eIF2a, phosphor-eIF2a (ser 51), p38 MAPK, phosphor-p38 MAPK (Thr180/Tyr182), ATF-6, CHOP and tubulin (loading control). ER stress-induced activation of C-Jun and p38 MAPK is suppressed by the 11 hit compounds.
CSM cells were treated with two compounds at increasing doses. Pre-incubation time, thapsigargin treatment, cell extract preparation and immunoblotting protocols were as described previously.

[1] = test system: ASK1 binding to 14-3-3 protein; assay: Co-immunoprecipitation of ASK1 with 14-3-3 in transfected 293T cells; format: cell-based; conditions: thapsigargin-stimulated transfected 293T; 100 μM where stated
Description: Phosphorylation of ASK1 at various sites was inspected. 293T cells were transfected with pcDNA-ASK1-HA. One day later, cells were incubated with DMSO (0.4%) or 100 μM compound 6239507 (#1) for two hours. Cell extracts were prepared using lysis buffer and were subjected to immunoblotting using anti-phospho ASK1 antibodies or anti HA antibody as indicated (A). The relative density of each phosphorylated ASK band was calculated by imageJ software (B). In (C), compounds from (A) were compared in activity against thapsigargin-induced cell death. […] (D) 293T cells were transfected with pcDNA-ASK1-HA and pEBG-GST-14-3-3. One day later cells were incubated with DMSO (0.4%) or 100 μM of the indicated compound for two hours. Then cells were treated with thapsigargin (20 μM) for the indicated time. Cell extracts were prepared using lysis buffer, and 14-3-3 proteins were immunoprecipitated with […] sepharose beads. ASK1 protein binding with 14-3-3 was visualized by immunoblotting using anti-HA antibody. Anti-phospho ASK1 (ser967) antibody was used to detect phosphorylation of ASK1 at each time point. […]
The ser 967 site of ASK1 is known to down-regulate ASK1 activity by phosphorylation (Goldman et al., J. Biol. Chem. 279:10442-10449, 2004) via 14-3-3 binding. […] The relative density of each phosphorylated ASK band was calculated by imageJ software. […]

Compound | Thapsigargin-induced phosphorylation of c-Jun (phospho-c-Jun) | Binding of ASK1 to 14-3-3 protein [1]
COc1ccc(C2CC(=O)C3=C(C2)Nc2ccccc2NC3c2ccccc2C(F)(F)F)cc1OC (stereo not shown) [Compound 6237735] | dose-dependent decrease | 
CCN(CC)c1ccc(C2Nc3ccccc3NC3=C2C(=O)CC(c2ccccc2)C3)cc1 (stereo not shown) [Compound 5962123, 6-(4-diethylaminophenyl)-9-phenyl-5,6,8,9,10,11-hexahydrobenzo[c][1,5]benzodiazepin-7-one] | inhibits | increased 14-3-3 binding to ASK1; also recorded: increases binding
COc1ccc(C2CC(=O)C3=C(C2)Nc2ccccc2NC3c2cccc(Oc3ccccc3)c2)cc1OC (stereo not shown) [Compound 6239507] |  | inhibits dissociation of 14-3-3 from ASK1
